Reference: PubChem BioAssay AID2060898 (Molecular Pharmacology Branch, DTP, NCI, 2025)

System: 616215-338-R-J1-PDC complex spheroid viability
Assay: Anticancer human tumor 616215-338-R-J1-PDC patient-derived colon adenocarcinoma cell line growth inhibition [RAS]
Conditions: for IC50: curve of first compound; for viability, T/C: stronger effect = lower value
Method in brief: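 Tumour cells grown as complex spheroids with HUVEC endothelial cells and mesenchymal stem cells, treated with RAS pathway inhibitor combinations. Each agent spans half-log steps from near clinical Cmax, or 10 microM where Cmax is unknown.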

[1] = second compound 0.000949 µM, first compound 0.00316 µM
[2] = second compound 0.000949 µM, first compound 0.01 µM
[3] = second compound 0.000949 µM, first compound 0.0316 µM
[4] = second compound 0.000949 µM, first compound 0.1 µM
[5] = second compound 0.000949 µM, first compound 0.316 µM
[6] = second compound 0.000949 µM, first compound 1 µM
[7] = second compound 0.003 µM, first compound 0.00316 µM
[8] = second compound 0.003 µM, first compound 0.01 µM
[9] = second compound 0.003 µM, first compound 0.0316 µM
[10] = second compound 0.003 µM, first compound 0.1 µM
[11] = second compound 0.003 µM, first compound 0.316 µM
[12] = second compound 0.003 µM, first compound 1 µM
[13] = second compound 0.00949 µM, first compound 0.00316 µM
[14] = second compound 0.00949 µM, first compound 0.01 µM
[15] = second compound 0.00949 µM, first compound 0.0316 µM
[16] = second compound 0.00949 µM, first compound 0.1 µM
[17] = second compound 0.00949 µM, first compound 0.316 µM
[18] = second compound 0.00949 µM, first compound 1 µM
[19] = second compound 0.03 µM, first compound 0.00316 µM
[20] = second compound 0.03 µM, first compound 0.01 µM
[21] = second compound 0.03 µM, first compound 0.0316 µM
[22] = second compound 0.03 µM, first compound 0.1 µM
[23] = second compound 0.03 µM, first compound 0.316 µM
[24] = second compound 0.03 µM, first compound 1 µM
[25] = second compound 0.0949 µM, first compound 0.00316 µM
[26] = second compound 0.0949 µM, first compound 0.01 µM
[27] = second compound 0.0949 µM, first compound 0.0316 µM
[28] = second compound 0.0949 µM, first compound 0.1 µM
[29] = second compound 0.0949 µM, first compound 0.316 µM
[30] = second compound 0.0949 µM, first compound 1 µM
[31] = second compound 0.3 µM, first compound 0.00316 µM
[32] = second compound 0.3 µM, first compound 0.01 µM
[33] = second compound 0.3 µM, first compound 0.0316 µM
[34] = second compound 0.3 µM, first compound 0.1 µM
[35] = second compound 0.3 µM, first compound 0.316 µM
[36] = second compound 0.3 µM, first compound 1 µM
[37] = second compound 0.000949 µM, first compound 3.16 µM
[38] = second compound 0.000949 µM, first compound 10 µM
[39] = second compound 0.003 µM, first compound 3.16 µM
[40] = second compound 0.003 µM, first compound 10 µM
[41] = second compound 0.00949 µM, first compound 3.16 µM
[42] = second compound 0.00949 µM, first compound 10 µM
[43] = second compound 0.03 µM, first compound 3.16 µM
[44] = second compound 0.03 µM, first compound 10 µM
[45] = second compound 0.0949 µM, first compound 3.16 µM
[46] = second compound 0.0949 µM, first compound 10 µM
[47] = second compound 0.3 µM, first compound 3.16 µM
[48] = second compound 0.3 µM, first compound 10 µM
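Note: spheroids exposed to agents for seven days before viability readout.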
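Throughout, for viability, T/C: 100% = DMSO vehicle control viability.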

C=CC(=O)Nc1cc(Nc2nccc(-c3cn(C)c4ccccc34)n2)c(OC)cc1N(C)CCN(C)C + CCn1c(-c2cc(N3CCN(C)CC3)cnc2C(C)OC)c2c3cc(ccc31)-c1csc(n1)CC(NC(=O)C1CC1C)C(=O)N1CCCC(N1)C(=O)OCC(C)(C)C2
IC50 (second compound 0.000949 µM): > 1000 nM
IC50 (second compound 0.003 µM): 522 nM
IC50 (second compound 0.00949 µM): 216 nM
IC50 (second compound 0.03 µM): 3.16 nM
IC50 (second compound 0.0949 µM): < 3.16 nM
IC50 (second compound 0.3 µM): < 3.16 nM
viability, T/C [1]: 106%
viability, T/C [2]: 102%
viability, T/C [3]: 119%
viability, T/C [4]: 101%
viability, T/C [5]: 84.1%
viability, T/C [6]: 56.3%
viability, T/C [7]: 113%
viability, T/C [8]: 109%
viability, T/C [9]: 104%
viability, T/C [10]: 81.9%
viability, T/C [11]: 54.7%
viability, T/C [12]: 43.7%
viability, T/C [13]: 77.3%
viability, T/C [14]: 80.4%
viability, T/C [15]: 72%
viability, T/C [16]: 63%
viability, T/C [17]: 43.6%
viability, T/C [18]: 28.7%
viability, T/C [19]: 44.4%
viability, T/C [20]: 48.8%
viability, T/C [21]: 48.4%
viability, T/C [22]: 54.9%
viability, T/C [23]: 34.5%
viability, T/C [24]: 32.4%
viability, T/C [25]: 30.8%
viability, T/C [26]: 34.1%
viability, T/C [27]: 36.6%
viability, T/C [28]: 36.9%
viability, T/C [29]: 34.7%
viability, T/C [30]: 33%
viability, T/C [31]: 39.2%
viability, T/C [32]: 33.1%
viability, T/C [33]: 39.1%
viability, T/C [34]: 37.3%
viability, T/C [35]: 33.5%
viability, T/C [36]: 32.5%

CC(C)NCC(C(=O)N1CCN(c2ncnc3c2C(C)CC3O)CC1)c1ccc(Cl)cc1 (stereo not drawn) + CCn1c(-c2cc(N3CCN(C)CC3)cnc2C(C)OC)c2c3cc(ccc31)-c1csc(n1)CC(NC(=O)C1CC1C)C(=O)N1CCCC(N1)C(=O)OCC(C)(C)C2
IC50 (second compound 0.000949 µM): 7560 nM
IC50 (second compound 0.003 µM): 5480 nM
IC50 (second compound 0.00949 µM): 2380 nM
IC50 (second compound 0.03 µM): < 31.6 nM
IC50 (second compound 0.0949 µM): < 31.6 nM
IC50 (second compound 0.3 µM): < 31.6 nM
viability, T/C [3]: 109%
viability, T/C [4]: 106%
viability, T/C [5]: 102%
viability, T/C [6]: 106%
viability, T/C [37]: 78.2%
viability, T/C [38]: 41%
viability, T/C [9]: 113%
viability, T/C [10]: 107%
viability, T/C [11]: 103%
viability, T/C [12]: 105%
viability, T/C [39]: 67.5%
viability, T/C [40]: 30.9%
viability, T/C [15]: 96.1%
viability, T/C [16]: 85.1%
viability, T/C [17]: 81.7%
viability, T/C [18]: 82.1%
viability, T/C [41]: 39.6%
viability, T/C [42]: 21.6%
viability, T/C [21]: 50.8%
viability, T/C [22]: 40%
viability, T/C [23]: 36.5%
viability, T/C [24]: 47.7%
viability, T/C [43]: 26.1%
viability, T/C [44]: 14.5%
viability, T/C [27]: 43.7%
viability, T/C [28]: 34.9%
viability, T/C [29]: 33.3%
viability, T/C [30]: 25.9%
viability, T/C [45]: 22%
viability, T/C [46]: 11.1%
viability, T/C [33]: 52%
viability, T/C [34]: 29.9%
viability, T/C [35]: 32.8%
viability, T/C [36]: 26.6%
viability, T/C [47]: 19.4%
viability, T/C [48]: 11.1%

CC(Nc1ccc2c(c1)OCCn1cc(N3C(=O)OCC3C(F)F)nc1-2)C(N)=O (stereo not drawn) + CCn1c(-c2cc(N3CCN(C)CC3)cnc2C(C)OC)c2c3cc(ccc31)-c1csc(n1)CC(NC(=O)C1CC1C)C(=O)N1CCCC(N1)C(=O)OCC(C)(C)C2
IC50 (second compound 0.000949 µM): > 10000 nM
IC50 (second compound 0.003 µM): > 10000 nM
IC50 (second compound 0.00949 µM): 281 nM
IC50 (second compound 0.03 µM): < 31.6 nM
IC50 (second compound 0.0949 µM): < 31.6 nM
IC50 (second compound 0.3 µM): < 31.6 nM
viability, T/C [3]: 114%
viability, T/C [4]: 106%
viability, T/C [5]: 103%
viability, T/C [6]: 117%
viability, T/C [37]: 94.6%
viability, T/C [38]: 74.5%
viability, T/C [9]: 109%
viability, T/C [10]: 99.5%
viability, T/C [11]: 85.5%
viability, T/C [12]: 83.2%
viability, T/C [39]: 91.4%
viability, T/C [40]: 69%
viability, T/C [15]: 90.9%
viability, T/C [16]: 63.5%
viability, T/C [17]: 48.4%
viability, T/C [18]: 48.9%
viability, T/C [41]: 47.7%
viability, T/C [42]: 48%
viability, T/C [21]: 37.4%
viability, T/C [22]: 41.2%
viability, T/C [23]: 28.6%
viability, T/C [24]: 37.1%
viability, T/C [43]: 38.1%
viability, T/C [44]: 28.2%
viability, T/C [27]: 33.3%
viability, T/C [28]: 31.9%
viability, T/C [29]: 28.7%
viability, T/C [30]: 25.9%
viability, T/C [45]: 23.2%
viability, T/C [46]: 25.3%
viability, T/C [33]: 37.8%
viability, T/C [34]: 40.5%
viability, T/C [35]: 27.5%
viability, T/C [36]: 29.3%
viability, T/C [47]: 25.3%
viability, T/C [48]: 23.5%

O=C(c1ccc(F)c(F)c1Nc1ccc(I)cc1F)N1CC(O)([C@@H]2CCCCN2)C1 + CCn1c(-c2cc(N3CCN(C)CC3)cnc2C(C)OC)c2c3cc(ccc31)-c1csc(n1)CC(NC(=O)C1CC1C)C(=O)N1CCCC(N1)C(=O)OCC(C)(C)C2
IC50 (second compound 0.000949 µM): 41.4 nM
IC50 (second compound 0.003 µM): 22.6 nM
IC50 (second compound 0.00949 µM): 6.67 nM
IC50 (second compound 0.03 µM): < 3.16 nM
IC50 (second compound 0.0949 µM): < 3.16 nM
IC50 (second compound 0.3 µM): < 3.16 nM
viability, T/C [1]: 115%
viability, T/C [2]: 87.5%
viability, T/C [3]: 58.6%
viability, T/C [4]: 27%
viability, T/C [5]: 12.1%
viability, T/C [6]: 3.52%
viability, T/C [7]: 101%
viability, T/C [8]: 73.3%
viability, T/C [9]: 39%
viability, T/C [10]: 20.6%
viability, T/C [11]: 5.3%
viability, T/C [12]: 2.66%
viability, T/C [13]: 66.8%
viability, T/C [14]: 39.9%
viability, T/C [15]: 24.2%
viability, T/C [16]: 15.7%
viability, T/C [17]: 2.25%
viability, T/C [18]: 2.11%
viability, T/C [19]: 32.5%
viability, T/C [20]: 30.3%
viability, T/C [21]: 21.2%
viability, T/C [22]: 3.47%
viability, T/C [23]: 1.98%
viability, T/C [24]: 1.79%
viability, T/C [25]: 30.1%
viability, T/C [26]: 19.2%
viability, T/C [27]: 4.14%
viability, T/C [28]: 1.63%
viability, T/C [29]: 1.65%
viability, T/C [30]: 1.53%
viability, T/C [31]: 25.9%
viability, T/C [32]: 18.8%
viability, T/C [33]: 2.37%
viability, T/C [34]: 1.55%
viability, T/C [35]: 1.12%
viability, T/C [36]: 1.16%
